Tests used:
[1] = system: Candida albicans (strain C3); assay: Experimental (mouse) candidiasis, survival ratio; format: in vivo, Candida albicans (strain C3) in male ICR-strain mice; conditions: 1 hr after infection, day-8, groups of 10 mice
Method: Male ICR-strain mice, weighing 20-22 g, were used in groups of 10. A 0.2 ml cell suspension of Candida albicans (strain C3) was injected IV via the tail vein, inoculum size being 2.5×10^7 cells/mouse. The test drugs (0.2 ml) were administered IV via the tail vein once at 1 hr after the infection.
The therapeutic effect of the test drugs was expressed as the survival ratio at day-8 after infection.

[2] = Acute toxicity (LD50, IV); conditions: mouse, in vivo, male ICR-strain mice, survivors at day-5, read-out: LD50 (50% lethal dose)
Method: An acute toxicity study was carried out with male ICR-strain mice. LD50 (50% lethal dose) was calculated on the basis of the number of survivors at day-5 after IV administration of the drugs.

## C[C@@H]1[C@H](O)[C@@H](C)/C=C/C=C/C=C/C=C/C=C/C=C/C=C/[C@H](O[C@@H]2O[C@H](C)[C@@H](O)[C@H](N)[C@@H]2O)C[C@@H]2O[C@](O)(C[C@@H](O)C[C@@H](O)[C@H](O)CC[C@@H](O)C[C@@H](O)CC(=O)O[C@H]1C)C[C@H](O)[C@H]2C(=O)O [amphotericin B]
[1]; 0.125 mg/kg IV once
  Survival ratio: 0%
[1]; 0.25 mg/kg IV once
  Survival ratio: 70%
[1]; 0.5 mg/kg IV once
  Survival ratio: 100%
[2]
  LD50 at 120 h: 4.1 mg/kg

Reference: US5023079A, “Heptaene V-28-3 antibiotic derivative” (Ajinomoto Co., Inc., priority 1987, dated 1991)
